The numbers were not newly measured in patent EP1027077B1, “MAGNETIC RESONANCE IMAGING AGENTS FOR THE DELIVERY OF THERAPEUTIC AGENTS” (Research Corporation Technologies, Inc, priority 1997, dated 1999), which cites them from elsewhere.

The conditions of the data set: thermodynamic stability of the Gd(III) chelate; background statement.

Regarding `O=C([O-])CN(CCN(CC(=O)[O-])CC(=O)[O-])CCN(CC(=O)[O-])CC(=O)[O-].[Gd+3]` [Gd(DTPA)^2-], the “stability constant (K) / formation constant, logK” value is 22.4. As to `O=C([O-])CN1CCN(CC(=O)[O-])CCN(CC(=O)[O-])CCN(CC(=O)[O-])CC1.[Gd+3]` [Gd-DOTA], the “stability constant (K) / formation constant, logK” value is recorded as 28.5.
